# Earlier results, collected in patent publication US9801890B2, “Medical methods utilising high purity diaminophenothiazinium compounds” (WisTa Laboratories Ltd., priority 2004, dated 2017).
# Assays:
# viruses = details: in vitro
# West Nile Virus = details: laboratory tests
# HIV = details: laboratory tests
smiles,measurement,setting,value
"CN(C)c1ccc2nc3ccc(N(C)C)cc3[s+]c2c1.[Cl-] [MTC, 3,7-bis(dimethylamino) phenothiazin-5-ium chloride]",viricidal activity,viruses,potent viricidal activity
same,effectiveness against virus,West Nile Virus,effective
same,effectiveness against virus,HIV,effective
